Measured values reported in US20180200257A1, “METHODS FOR THE TREATMENT OF INFLAMMATORY DISORDERS” (Galapagos NV, priority 2015, published 2018).

Tested on: subjects with moderately to severely active RA who have an inadequate response to methotrexate (MTX)
Assay: Study 1 (add-on to MTX) - ACR responses (ACR20/50/70)
Assay type: in vivo, human
Source text: The terms “ACR20”, “ACR50” and “ACR70” as used herein are scores which indicate how much a patient's rheumatoid arthritis has improved according to criteria set out by the American College of Rheumatology (ACR). The ACR score represents a percentage. An ACR20 score means that a person's RA has improved by 20%, an ACR50 score means it has improved by 50%, and an ACR70 score means it has improved by 70%. Specifically, to qualify for an ACR20 score, a person with RA must have at least 20% fewer tender joints and at least 20% fewer swollen joints. In addition the patient must show a 20% improvement in at least three of the following five areas: the person's overall (global) assessment of his or her own RA, the physician's global assessment of the person's RA, the person's assessment of his or her own pain, the person's assessment of his or her own physical functioning, and the results of an erythrocyte sedimentation rate or C-reactive protein (CRP) blood test (both of which test for inflammation). ACR50 and ACR70 scores use the same criteria but require 50% and 70% improvement, respectively, (Felson et al., 1993). In the data presented herein the CRP blood test is used.
Double-blind, placebo-controlled add on study in subjects with moderately to severely active RA who have an inadequate response to methotrexate (MTX) (oral or parenteral).
595 subjects randomized to one of 6 dose regimens of Compound 1 (dosed as [Compound 1:HCl:3H2O]) (3 dose levels administered either once or twice daily) or placebo on top of each subject's stable dose of MTX.
Compound 1 (dosed as [Compound 1:HCl:3H2O]) is dosed for twelve weeks once daily (q.d.) (50 mg, 100 mg or 200 mg) or twice daily (b.i.d.) (25 mg, 50 mg or 100 mg); or placebo.
At Week 12, the subjects on placebo who have not achieved 20% improvement in swollen joint count (SJC66) and tender joint count (TJC68) are re-randomized automatically to receive Compound 1 (dosed as a [Compound 1:HCl:3H2O]) either at 100 mg q.d. or 50 mg b.i.d. doses in a blinded fashion; subjects on 50 mg q.d. who have not achieved 20% improvement in SJC66 and TJC68 will be assigned to 100 mg q.d. and subjects on 25 mg b.i.d. that have not achieved a 20% improvement in SJC66 and TJC68 will be assigned to 50 mg b.i.d. Subjects who switch treatment at week 12 are handled as if they discontinued at week 12 for the purpose of statistical analysis, whereas subjects in the other groups will maintain their randomized treatment until Week 24.
The American College of Rheumatology (ACR) composite score, which evaluates clinical improvement relative to an initial assessment, is a commonly accepted efficacy end point for clinical trials in patients with rheumatoid arthritis. The ACR score correspond to a percentage improvement in pre-set parameters, and therefore measures the evolution of the disease in a patient. For example, ACR20 denotes at least 20% improvement in tender and swollen joint counts and in three of the following end points: global assessment by the patient, global assessment by the doctor, C reactive protein (CRP), patient's pain Visual Analogue Scale and Health Assessment Questionnaire Score. The number of swollen joints, ESR and CRP correlate with radiographic progression of joint damage, whereas tender joint counts, as well as global assessments by doctors and patients, and patients' reports of pain, are sensitive to change in clinical outcomes. Physical function, as assessed by the Health Assessment Questionnaire Score, is a potent predictor of the risk of disability in rheumatoid arthritis (Felson and American College of Rheumatology Committee to Reevaluate Improvement Criteria, 2007; Felson et al., 1993).
In particular, the list of parameters used to assess ACR score can be found in the Table XCVI below and the results of the ACR responses at week 12 via either NRI or LOCF are shown in the tables below. The Hommel-corrected p-value for the pairwise comparisons of each group with placebo is shown. […]

[1] = 2 × 25 mg b.i.d., week 2, 12 weeks results
[2] = 2 × 25 mg b.i.d., week 2, 24 weeks results
[3] = 2 × 25 mg b.i.d., week 4, 12 weeks results
[4] = 2 × 25 mg b.i.d., week 4, 24 weeks results
[5] = 2 × 25 mg b.i.d., week 8, 12 weeks results
[6] = 2 × 25 mg b.i.d., week 8, 24 weeks results
[7] = 2 × 25 mg b.i.d., week 12, 12 weeks results
[8] = 2 × 25 mg b.i.d., week 12, 24 weeks results
[9] = 2 × 25 mg b.i.d., week 16, 24 weeks results
[10] = 2 × 25 mg b.i.d., week 20, 24 weeks results
[11] = 2 × 25 mg b.i.d., week 24, 24 weeks results
[12] = 2 × 25 mg b.i.d., at week 1, 12 weeks results
[13] = 2 × 25 mg b.i.d., at week 1, 24 weeks results
[14] = 2 × 50 mg b.i.d., week 2, 12 weeks results
[15] = 2 × 50 mg b.i.d., week 2, 24 weeks results
[16] = 2 × 50 mg b.i.d., week 4, 12 weeks results
[17] = 2 × 50 mg b.i.d., week 4, 24 weeks results
[18] = 2 × 50 mg b.i.d., week 8, 12 weeks results
[19] = 2 × 50 mg b.i.d., week 8, 24 weeks results

O=C(Nc1nc2cccc(-c3ccc(CN4CCS(=O)(=O)CC4)cc3)n2n1)C1CC1 [Compound 1, cyclopropanecarboxylic acid {5-[4-(1,1-dioxo-thiomorpholin-4-ylmethyl)-phenyl]-[1,2,4]triazolo[1,5-a]pyridin-2-yl}-amide] was tested, and the “ACR70 (NRI)” value (200 mg q.d., week 8, 12 weeks results) was 18.6%, the “ACR20 (LOCF)” value [1] was 27.9% and the “ACR20 (NRI)” value [1] was 29.1%. The “ACR50 (LOCF)” value [1] was 7.0%, the “ACR50 (NRI)” value [1] was 7.0% and the “ACR70 (LOCF)” value [1] was 2.3%. For the same molecule, the “ACR70 (NRI)” value [1] was 2.3%, the “ACR20 (LOCF)” value [2] was 29.1% and the “ACR20 (NRI)” value [2] was 29.1%. The “ACR50 (LOCF)” value [2] was 7.0%, the “ACR50 (NRI)” value [2] was 7.0% and the “ACR70 (LOCF)” value [2] was 2.3%. The “ACR70 (NRI)” value [2] was 2.3%, the “ACR20 (LOCF)” value [3] was 44.2% and the “ACR20 (NRI)” value [3] was 45.3%. For the same molecule, the “ACR50 (LOCF)” value [3] was 16.3%, the “ACR50 (NRI)” value [3] was 15.1% and the “ACR70 (LOCF)” value [3] was 5.8%. For the same molecule, the “ACR70 (NRI)” value [3] was 5.8%, the “ACR20 (LOCF)” value [4] was 46.5% and the “ACR20 (NRI)” value [4] was 45.3%. The “ACR50 (LOCF)” value [4] was 16.3%, the “ACR50 (NRI)” value [4] was 15.1% and the “ACR70 (LOCF)” value [4] was 5.8%. The “ACR70 (NRI)” value [4] was 5.8%, the “ACR20 (LOCF)” value [5] was 58.1% and the “ACR20 (NRI)” value [5] was 58.1%. The “ACR50 (LOCF)” value [5] was 25.6%, the “ACR50 (NRI)” value [5] was 25.6% and the “ACR70 (LOCF)” value [5] was 8.1%. For the same molecule, the “ACR70 (NRI)” value [5] was 9.3%, the “ACR20 (LOCF)” value [6] was 59.3% and the “ACR20 (NRI)” value [6] was 58.1%. The “ACR50 (LOCF)” value [6] was 25.6%, the “ACR50 (NRI)” value [6] was 25.6% and the “ACR70 (LOCF)” value [6] was 9.3%. The “ACR70 (NRI)” value [6] was 9.3%, the “ACR20 (LOCF)” value [7] was 58.1% and the “ACR20 (NRI)” value [7] was 57.0%. For the same molecule, the “ACR50 (LOCF)” value [7] was 29.1%, the “ACR50 (NRI)” value [7] was 27.9% and the “ACR70 (LOCF)” value [7] was 14.0%. For the same molecule, the “ACR70 (NRI)” value [7] was 14.0%, the “ACR20 (LOCF)” value [8] was 59.3% and the “ACR20 (NRI)” value [8] was 57.0%. The “ACR50 (LOCF)” value [8] was 29.1%, the “ACR50 (NRI)” value [8] was 27.9% and the “ACR70 (LOCF)” value [8] was 14.0%. The “ACR70 (NRI)” value [8] was 14.0%, the “ACR20 (LOCF)” value [9] was 55.8% and the “ACR20 (NRI)” value [9] was 52.3%. The “ACR50 (LOCF)” value [9] was 31.4%, the “ACR70 (LOCF)” value [9] was 10.5% and the “ACR20 (LOCF)” value [10] was 58.1%. For the same molecule, the “ACR20 (NRI)” value [10] was 52.3%, the “ACR50 (LOCF)” value [10] was 41.9% and the “ACR70 (LOCF)” value [10] was 11.6%. The “ACR20 (LOCF)” value [11] was 62.8%, the “ACR20 (NRI)” value [11] was 55.8% and the “ACR50 (LOCF)” value [11] was 38.4%. The “ACR70 (LOCF)” value [11] was 22.1%, the “ACR20 (LOCF)” value [12] was 17.4% and the “ACR20 (NRI)” value [12] was 17.4%. For the same molecule, the “ACR50 (LOCF)” value [12] was 2.3%, the “ACR50 (NRI)” value [12] was 3.5% and the “ACR70 (LOCF)” value [12] was 1.2%. For the same molecule, the “ACR70 (NRI)” value [12] was 1.2%, the “ACR20 (LOCF)” value [13] was 17.4% and the “ACR20 (NRI)” value [13] was 17.4%. The “ACR50 (LOCF)” value [13] was 3.5%, the “ACR50 (NRI)” value [13] was 3.5% and the “ACR70 (LOCF)” value [13] was 2.4%. The “ACR70 (NRI)” value [13] was 1.2%, the “ACR20 (LOCF)” value [14] was 40.0% and the “ACR20 (NRI)” value [14] was 41.2%. For the same molecule, the “ACR50 (LOCF)” value [14] was 11.8%, the “ACR50 (NRI)” value [14] was 11.8% and the “ACR70 (LOCF)” value [14] was 5.9%. The “ACR70 (NRI)” value [14] was 5.9%, the “ACR20 (LOCF)” value [15] was 41.2% and the “ACR20 (NRI)” value [15] was 41.2%. The “ACR50 (LOCF)” value [15] was 11.8%, the “ACR50 (NRI)” value [15] was 11.8% and the “ACR70 (LOCF)” value [15] was 5.9%. For the same molecule, the “ACR70 (NRI)” value [15] was 5.9%, the “ACR20 (LOCF)” value [16] was 45.9% and the “ACR20 (NRI)” value [16] was 44.7%. For the same molecule, the “ACR50 (LOCF)” value [16] was 20.0%, the “ACR50 (NRI)” value [16] was 17.6% and the “ACR70 (LOCF)” value [16] was 9.4%. For the same molecule, the “ACR70 (NRI)” value [16] was 9.4%, the “ACR20 (LOCF)” value [17] was 47.1% and the “ACR20 (NRI)” value [17] was 45.3%. For the same molecule, the “ACR50 (LOCF)” value [17] was 20.0%, the “ACR50 (NRI)” value [17] was 17.6% and the “ACR70 (LOCF)” value [17] was 9.4%. For the same molecule, the “ACR70 (NRI)” value [17] was 9.4%, the “ACR20 (LOCF)” value [18] was 55.3% and the “ACR20 (NRI)” value [18] was 54.1%. For the same molecule, the “ACR50 (LOCF)” value [18] was 32.9%, the “ACR50 (NRI)” value [18] was 32.9% and the “ACR70 (LOCF)” value [18] was 14.1%. For the same molecule, the “ACR70 (NRI)” value [18] was 14.1%, the “ACR20 (LOCF)” value [19] was 55.3% and the “ACR20 (NRI)” value [19] was 54.1%. For the same molecule, the “ACR50 (LOCF)” value [19] was 32.9%, the “ACR50 (NRI)” value [19] was 32.9% and the “ACR70 (LOCF)” value [19] was 14.1%.
